Patent publication US7109193B2, “Tricyclic diazepines tocolytic oxytocin receptor antagonists” (Wyeth, priority 2001, dated 2006)

Each molecule was assayed against T1, human vasopressin V1a receptor subtype (Homo sapiens, UniProt P37288) (assay: Vasopressin binding in Chinese Hamster Ovary cell membranes expressing human vasopressin V1a subtype receptors). Conditions: 100 nM, CHO cell membranes, [3H]Manning ligand, values without parentheses.
T1 construct: host or cells: CHO cells (pZeoSV vector for the Thibonnier line)
Experimental: Vasopressin Binding in Chinese Hamster Ovary Cell Membranes Expressing Human Vasopressin V1a Subtype Receptors
The trypsin is removed by aspiration and the cells dislodged by tapping. Cell Culture medium (e.g. 30 mL for 1:30 split) is immediately added and mixed well to inactivate trypsin. 1 mL of detached cells is added to new culture flasks containing fresh cell culture medium (e.g., into 25 mL per T-150 flask), and mixed gently. The cells are incubated at 37° C. in 5% CO2. The medium is changed at 3 to 4 days interval (or as appropriate). […] All steps are done under sterile conditions. B. Membrane Preparation: The cells are washed twice gently with Hank's Balanced Salt solution (e.g,. use 10 mL per T-150 flask). […] The contents are transferred to centrifuge tubes (50 mL) kept in an ice bath. All subsequent steps are done at 4° C. The tubes are centrifuged at 300×g for 15 min (1380 rpm on SORVAL, Model RT6000D, using the rotor for 50 mL tubes). The supernatant is discarded and the cells suspended in homogenizing buffer(10 mM Tris-HCl containing 0.25 M sucrose and 1 mM EDTA, pH 7.4) ensuring that the volume of the buffer is about ten times the volume of the cell pellet. The cells are pooled into a centrifuge tube (50 mL) and homogenized with a Polytron at setting 6 for 10 sec. The homogenate is transferred into a Potter-Elvjehm homogenizer and homogenized with 3 strokes. The homogenate is centrifuged at 1500×g for 10 min at 4° C. (3100 rpm using SORVAL, model RT6000D, using the rotor for 50 mL tubes). The pellet is discarded. The supernatant is centrifuged at 100,000×g for 60 min. at 4° C. (Beckman L8-80M ultracentrifuge; spin at 37,500 rpm with rotor type 70 Ti for 50 mL tubes; 38,000 rpm with type 80Ti for 15 mL tubes; or 35,800 rpm with rotor type 45Ti). The supernantant is discarded and the pellet suspended in 3 to 4 mL of Tris buffer (50 mM TRIS-HCl, pH 7.4). The protein content is estimated by the Bradford or Lowry method. The volume of the membrane suspension is adjusted with the membrane buffer (50 mM Tris-HCl containing 0.1% BSA and 0.1 mM PMSF) to give 3.0 mg/mL (or as appropriate) of protein. The membranes are aliquoted and stored at −70° C. C. Radioligand Binding Assay: In wells of a 96-well format microtiter plate, is added 90, 110 or 130 μL (to make up a final volume of 200 μL) of assay buffer containing 50 mM of Tris-HCl (pH 7.4), BSA (heat inactivated, protease-free), […], 1 mg % aprotinin, 1 mg % leupeptin, 2 mg % 1,10-phenanthroline, 10 mg % trypsin inhibitor, and 0.1 mM PMSF. The inhibitors are added on the day of the experiment. The components are mixed at room temperature, and then kept in ice bath following adjustment of the pH to 7.4. […] 20 μL of 50% DMSO is added for Manning and other peptide ligands and the assay buffer volume is adjusted accordingly. To each well is added 50 μL of frozen membrane suspension thawed immediately prior to use and diluted in the assay buffer to the required concentration (equivalent to 25 to 50 μg of protein/well as needed). 20 μL of 8 nM [^3H]Manning ligand in the assay buffer, prepared just before use, is added, and incubated at room temperature for 60 min. shaking the plate on a mechanical shaker for the first 15 min. The incubation is stopped by rapid filtration of the plate contents followed by wash with ice-cold buffer (50 mM Tris-HCl, pH 7.4) using a cell harvester (Tomtek and Printed filtermat-B filter paper). The filter paper is thoroughly dried (7–12 min. in a microwave oven) and impregnated with MeltiLex B/H melt-on scintillation wax sheets and the radioactivity counted in a betaplate scintillation counter.
Binding data is either reported as percent inhibition at a certain concentration or if an IC50 was calculated, as a nanomolar concentration.

T1 sequence (P37288 whole entry): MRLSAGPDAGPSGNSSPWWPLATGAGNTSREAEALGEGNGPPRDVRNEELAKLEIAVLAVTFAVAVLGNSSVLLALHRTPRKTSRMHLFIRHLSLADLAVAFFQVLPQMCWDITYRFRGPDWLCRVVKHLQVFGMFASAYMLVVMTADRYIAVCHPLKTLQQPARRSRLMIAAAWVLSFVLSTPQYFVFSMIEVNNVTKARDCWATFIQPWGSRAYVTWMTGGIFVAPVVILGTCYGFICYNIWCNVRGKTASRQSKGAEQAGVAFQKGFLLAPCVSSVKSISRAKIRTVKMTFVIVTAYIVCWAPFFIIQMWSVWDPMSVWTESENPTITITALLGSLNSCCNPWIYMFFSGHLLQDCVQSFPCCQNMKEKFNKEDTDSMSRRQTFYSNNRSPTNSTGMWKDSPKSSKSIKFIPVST

Going from COc1ccccc1-c1ccc(C(=O)N2Cc3ccc(C(=O)N4CCC(N5CCCC5)CC4)n3Cc3ccccc32)cc1OC [Example 145, {10-[(2,2′-Dimethoxy[1,1′-biphenyl]4-yl)carbonyl]-10,11-dihydro-5H-pyrrolo[2,1-c][1,4]benzodiazepin-3-yl}[4-(1-pyrrolidinyl)-l-piperidinyl]methanone] to COc1cc(C(=O)N2Cc3ccc(C(=O)N4CCC[C@H]4CN4CCCC4)n3Cc3ccccc32)ccc1-c1ccccc1Cl [Example 33, {[10-(2-Methoxy)-2′-chloro-[1,1′-biphenyl]-4-yl]carbonyl}-[(2S)-[(2-pyrrolidin-1-yl)methyl]pyrrolidin-1-yl]-10,11-dihydro-5H-pyrrolo[2,1-c][1,4]benzodiazepin-3-yl-methanone], the “V1a % inhibition @ 100 nM” value rises from −4% to 68%.

Going from COc1cc2c(cc1OC)N(C(=O)c1ccc(-c3ccccc3C(F)(F)F)c(C)c1)Cc1ccc(C(=O)N3CCC(=O)CC3)n1C2 [Example 14, 7,8-Dimethoxy-10-{[2-methyl-2′-(trifluoromethyl)-[1,1′-biphenyl]-4-yl]carbonyl}-[(10,11-dihydro-5H-pyrrolo[2,1-c][1,4]benzodiazepin-3-yl)carbonyl]-4-piperidinone] to COC(=O)c1ccc2c(c1)N(C(=O)c1ccc(-c3ccccc3C(F)(F)F)c(C)c1)Cc1cccn1C2 [Example 26, Methyl 10-{[2-methyl-2′-trifluoromethyl-[1,1′-biphenyl]-4-yl]carbonyl}-10,11-dihydro-5H-pyrrolo[2,1-c][1.4]benzodiazepine-8-carboxylate], the “V1a % inhibition @ 100 nM” value rises from −16% to −3%.

Compared with Cc1ccccc1-c1ccc(C(=O)N2Cc3ccc(C(=O)N4CC[C@@H](N(C)C)C4)n3Cc3ccccc32)cc1 [Example 280, [(3R)-3-(Dimethylamino)pyrrolidinyl]{10-[(2′-methyl[1,1′-biphenyl]-4-yl)carbonyl]-10,11-dihydro-5H-pyrrolo[2,1-c][1,4]benzodiazepin-3-yl}methanone], COc1cc(C(=O)N2Cc3ccc(C(=O)N4CC[C@@H](N(C)C)C4)n3Cc3ccccc32)ccc1-c1ccccc1C [Example 281, [(3R)-3-(Dimethylamino)pyrrolidinyl]{10-[(2-methoxy-2′-methyl[1,1′-biphenyl]-4-yl)carbonyl]-10,11-dihydro-5H-pyrrolo[2,1-c][1,4]benzodiazepin-3-yl}methanone] is lower in “V1a % inhibition @ 100 nM” value: 77% for the first, 58% for the second.

In the case of COc1cccc(-c2cc(OC)c(C(=O)N3Cc4ccc(C(=O)N5CC[C@@H](N(C)C)C5)n4Cc4ccccc43)cc2Cl)c1 [Example 275, {10-[(6-Chloro-3,3′-dimethoxy[1,1′-biphenyl]-4-yl)carbonyl]-10,11-dihydro-5H-pyrrolo[2,1-c][1,4]benzodiazepin-3-yl}[(3R)-3-(dimethylamino)pyrrolidinyl]methanone], the “V1a % inhibition @ 100 nM” value is reported as 9%.

COc1cccc(-c2cc(OC)c(C(=O)N3Cc4ccc(C(=O)N5CCC(N6CCCCC6)CC5)n4Cc4ccccc43)cc2Cl)c1 [Example 117, {10-[(6-Chloro-3-methoxy-3′-methoxy[1,1′-biphenyl]-4-yl)carbonyl]-10,11-dihydro-5H-pyrrolo[2,1-c][1,4]benzodiazepin-3-yl}[4-(1-piperidinyl)-1-piperidinyl]methanone] and COc1cccc(-c2cc(OC)c(C(=O)N3Cc4ccc(C(=O)N5CCC(N6CCCC6)CC5)n4Cc4ccccc43)cc2Cl)c1 [Example 143, {10-[(6-Chloro-3,3′-dimethoxy[1,1′-biphenyl]-4-yl)carbonyl]-10,11-dihydro-5H-pyrrolo[2,1-c][1,4]benzodiazepin-3-yl}[4-(1-pyrrolidinyl)-1-piperidinyl]methanone] are the same in inhibition at 0.1 µM: -3% for the first, -3% for the second.

Compared with COc1cccc(-c2cc(OC)c(C(=O)N3Cc4ccc(C(=O)NCCCn5ccnc5)n4Cc4ccccc43)cc2Cl)c1 [Example 130, 10-[(6-Chloro-3,3′-dimethoxy[1,1′-biphenyl]-4-yl)carbonyl]-N-[3-(1H-imidazol-1-yl)propyl]-10,11-dihydro-5H-pyrrolo[2,1-c][1,4]benzodiazepine-3-carboxamide], COc1cccc(-c2ccc(C(=O)N3Cc4ccc(C(=O)NCCCn5ccnc5)n4Cc4ccccc43)cc2OC)c1 [Example 133, 10-[(2,3′-Dimethoxy[1,1′-biphenyl]4-yl)carbonyl]-N-[3-(1H-imidazol-1-yl)propyl]-10,11-dihydro-5H-pyrrolo[2,1-c][1,4]benzodiazepine-3-carboxamide] is higher in inhibition at 0.1 µM: 4% for the first, 20% for the second.

Compared with COc1cccc(-c2ccc(C(=O)N3Cc4ccc(C(=O)N5CCC(N6CCCC6)CC5)n4Cc4ccccc43)cc2C)c1 [Example 139, {10-[(3′-Methoxy-2-methyl[1,1′-biphenyl]-4-yl)carbonyl]-10,11-dihydro-5H-pyrrolo[2,1-c][1,4]benzodiazepin-3-yl}[4-(1-pyrrolidinyl)-1-piperidinyl]methanone], COc1cccc(-c2ccc(C(=O)N3Cc4ccc(C(=O)N5CCC(N6CCCCC6)CC5)n4Cc4ccccc43)cc2OC)c1 [Example 120, {10-[(2,3′-Dimethoxy-[1,1′-biphenyl]-4-yl)carbonyl]-10,11-dihydro-5H-pyrrolo[2,1-c][1,4]benzodiazepin-3-yl}[4-(1-piperidinyl)-1-piperidinyl]methanone] is higher in inhibition at 0.1 µM: 9% for the first, 20% for the second.

First: Cc1ccccc1-c1ccc(C(=O)N2Cc3ccc(C(=O)NCCN4CCCCC4)n3Cc3ccccc32)cc1C [Example 150, 10-[(2,2′-Dimethyl[1,1′-biphenyl]-4-yl)carbonyl]-N-[2-(1-piperidinyl)ethyl]-10,11-dihydro-5H-pyrrolo[2,1-c][1,4]benzodiazepine-3-carboxamide]
Second: Cc1ccccc1-c1ccc(C(=O)N2Cc3ccc(C(=O)NCCN4CCCCC4)n3Cc3ccccc32)cc1 [Example 153, 10-[(2′-Methyl[1,1′-biphenyl]-4-yl)carbonyl]-N-[2-(1-piperidinyl)ethyl]-10,11-dihydro-5H-pyrrolo[2,1-c][1,4]benzodiazepine-3-carboxamide]
The inhibition at 0.1 µM of the first is lower: 42% for the first, 50% for the second.

Compared with Cc1ccccc1-c1ccc(C(=O)N2Cc3ccc(C(=O)N4CCC(N5CCCC5)CC4)n3Cc3ccccc32)cc1 [Example 141, {10-[(2′-Methyl[1,1′-biphenyl]-4-yl)carbonyl]-10,11-dihydro-5H-pyrrolo[2,1-c][1,4]benzodiazepin-3-yl}[4-(1-pyrrolidinyl)-1-piperidinyl]methanone], COc1cc(C(=O)N2Cc3ccc(C(=O)N4CCC(N5CCCC5)CC4)n3Cc3ccccc32)ccc1-c1cccc2ccccc12 [Example 144, {10-[3-Methoxy-4-(1-naphthyl)benzoyl]-10,11-dihydro-5H-pyrrolo[2,1-c][1,4]benzodiazepin-3-yl}[4-(1-pyrrolidinyl)-1-piperidinyl]methanone] is higher in inhibition at 0.1 µM: -3% for the first, -1% for the second.

First: COc1cc(-c2ccccc2C)c(Cl)cc1C(=O)N1Cc2ccc(C(=O)NCCN3CCCCC3)n2Cc2ccccc21 [Example 155, 10-[(6-Chloro-3-methoxy-2′-methyl[1,1′-biphenyl]-4-yl)carbonyl]-N-[2-(1-piperidinyl)ethyl]-10,11-dihydro-5H-pyrrolo[2,1-c][1,4]benzodiazepine-3-carboxamide]
Second: COc1ccccc1-c1ccc(C(=O)N2Cc3ccc(C(=O)NCCCn4ccnc4)n3Cc3ccccc32)cc1C [Example 123, N-[3-(1H-Imidazol-1-yl)propyl]-10-[(2′-methoxy-2-methyl[1,1′-biphenyl]-4-yl)carbonyl]-10,11-dihydro-5H-pyrrolo[2,1-c][1,4]benzodiazepine-3-carboxamide]
The inhibition at 0.1 µM of the first is lower: 0% for the first, 9% for the second.
